Assay results reported in patent US20190127775A1 (priority 2016, published 2019).

How the values were obtained:
[1] = tested on: methicillin resistant Staphylococcus aureus (MRSA; ATCC # 43300); assay: Whole cell anti-MRSA growth inhibition screen (OD590) of Un-Met and Pre-Met library plates; type: cell-based
Procedure: Next, a copy of the library in its un-metabolized form and a copy of the library in its pre-metabolized form were created. The buffer used for library metabolism was (4×=4 times the concentration of each component in the final solution): 4× KPMEN Buffer: 200 mM KH2PO4; 4 mM K2EDTA; 20 mM glucose-6-phosphate, disodium salt (G6P); 4 mM NADPH, tetrasodium salt; pH adjusted to 7.4 with 1 M KOH. To each well in 1 set of the Reconstituted Copy Plates was added 45 μL 1.1× KEPNM Buffer to give 1 set of unmetabolized (“Un-Met”) Library Plates. […] Both sets of plates were incubated at room temperature for 24 hours with gentle rocking to provide 1 set of Un-Met Library Plates and 1 set of Pre-Met Library Plates. […]
Antibacterial activity screening was performed using methicillin resistant Staphylococcus aureus (MRSA; ATCC # 43300). […] The optical density of each well was then read at 590 nm (0D590) using a TECAN SpectraFluor Plus microtiter plate reader (Artisan Technology Group, Champaign, Ill.). These plates were also read prior to addition of bacteria to identify wells with compounds with a high OD590, so that these well could be examined manually for turbidity post bacterial growth, since a high prior OD590 would interfere with post bacterial growth OD590 measurement. […]

[2] = un-metabolized parent; only active after metabolic conversion into sulfanilamide; cited from earlier work

COc1ccc2c(c1)[C@]13CCCC[C@@H]1[C@H](C2)N(C)CC3 [dextromethorphan]
anti-MRSA activity in the Pre-Met plates ([1]; Pre-Met plates (human liver microsomes), cutoff OD590 0.18, 24 hours 35° C.): not in the Pre-Met plates | anti-MRSA activity in the Un-Met plates ([1]; Un-Met plates, cutoff OD590 0.15, 24 hours 35° C.): had anti-MRSA activity

Nc1ccc(/N=N/c2ccc(S(N)(=O)=O)cc2)c(N)c1 [protosil, prontosil]
antibacterial activity in vitro [2]: inactive in vitro
